Converted amounts (≈) assume the structure as drawn. Values belong to the compound of their own block, whether it stands above or below them.
Key:
[1] = Kinetic solubility of compound at pH 2; format: physicochemical; details: buffer, read-out: Kinetic_solubility
[2] = Kinetic solubility of compound at pH 4.5; format: physicochemical; details: buffer, read-out: Kinetic_solubility
[3] = cells; details: Mus musculus, BaF3/TRP-Met, 72 h
[4] = system: BaF3; test: cells; details: Mus musculus, BaF3, 72 h
[5] = system: BaF3; test: cells; details: Mus musculus, BaF3, 72 h; remark: listed apart in the source
[6] = system: BaF3; test: cells; details: Mus musculus, BaF3, 72 h; remark: listed apart in the source
[7] = system: BaF3; test: cells; details: Mus musculus, BaF3, 72 h; remark: listed apart in the source
[8] = system: BaF3; test: cells; details: Mus musculus, BaF3, 72 h; remark: listed apart in the source
[9] = system: BaF3; test: cells; details: Mus musculus, BaF3, 72 h; remark: listed apart in the source
[10] = system: BaF3; test: cells; details: Mus musculus, BaF3, 72 h; remark: listed apart in the source
[11] = system: BaF3; test: cells; details: Mus musculus, BaF3, 72 h; remark: listed apart in the source
[12] = system: BaF3; test: cells; details: Mus musculus, BaF3, 72 h; remark: listed apart in the source
[13] = system: BaF3; test: cells; details: Mus musculus, BaF3, 72 h; remark: listed apart in the source
[14] = system: BaF3; test: cells; details: Mus musculus, BaF3, 72 h; remark: listed apart in the source
[15] = system: BaF3; test: cells; details: Mus musculus, BaF3, 72 h; remark: listed apart in the source
[16] = system: BaF3; test: cells; details: Mus musculus, BaF3, 72 h; remark: listed apart in the source
[17] = system: BaF3; test: cells; details: Mus musculus, BaF3, 72 h; remark: listed apart in the source
[18] = molecular target: Cytochrome P450 3A4 (Homo sapiens, UniProt P08684); test: Inhibition of CYP3A4 (unknown origin); format: ADME
[19] = molecular target: T1, Alpha-2A adrenergic receptor (Homo sapiens) (UniProt P08913); test: Inhibition of alpha 2A adrenergic receptor (unknown origin) at 10 uM by CEREP analysis relative to control
T1 sequence (whole entry): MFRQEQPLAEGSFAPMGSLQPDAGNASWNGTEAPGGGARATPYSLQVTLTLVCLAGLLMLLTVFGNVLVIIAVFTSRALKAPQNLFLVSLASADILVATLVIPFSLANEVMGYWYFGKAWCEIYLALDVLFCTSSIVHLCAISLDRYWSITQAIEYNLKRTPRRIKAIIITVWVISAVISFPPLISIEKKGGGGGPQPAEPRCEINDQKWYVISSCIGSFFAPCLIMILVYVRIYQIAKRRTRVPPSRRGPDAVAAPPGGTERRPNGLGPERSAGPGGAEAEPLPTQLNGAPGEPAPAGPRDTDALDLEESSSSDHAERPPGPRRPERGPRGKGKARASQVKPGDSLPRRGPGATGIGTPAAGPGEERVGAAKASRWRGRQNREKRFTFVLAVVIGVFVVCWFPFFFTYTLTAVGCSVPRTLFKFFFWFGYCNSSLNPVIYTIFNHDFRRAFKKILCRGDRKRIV

[20] = molecular target: hERG (Homo sapiens, UniProt Q12809); test: Inhibition of hERG at 10 uM by CEREP analysis relative to control; format: toxicity
hERG, sequence (Q12809 whole entry): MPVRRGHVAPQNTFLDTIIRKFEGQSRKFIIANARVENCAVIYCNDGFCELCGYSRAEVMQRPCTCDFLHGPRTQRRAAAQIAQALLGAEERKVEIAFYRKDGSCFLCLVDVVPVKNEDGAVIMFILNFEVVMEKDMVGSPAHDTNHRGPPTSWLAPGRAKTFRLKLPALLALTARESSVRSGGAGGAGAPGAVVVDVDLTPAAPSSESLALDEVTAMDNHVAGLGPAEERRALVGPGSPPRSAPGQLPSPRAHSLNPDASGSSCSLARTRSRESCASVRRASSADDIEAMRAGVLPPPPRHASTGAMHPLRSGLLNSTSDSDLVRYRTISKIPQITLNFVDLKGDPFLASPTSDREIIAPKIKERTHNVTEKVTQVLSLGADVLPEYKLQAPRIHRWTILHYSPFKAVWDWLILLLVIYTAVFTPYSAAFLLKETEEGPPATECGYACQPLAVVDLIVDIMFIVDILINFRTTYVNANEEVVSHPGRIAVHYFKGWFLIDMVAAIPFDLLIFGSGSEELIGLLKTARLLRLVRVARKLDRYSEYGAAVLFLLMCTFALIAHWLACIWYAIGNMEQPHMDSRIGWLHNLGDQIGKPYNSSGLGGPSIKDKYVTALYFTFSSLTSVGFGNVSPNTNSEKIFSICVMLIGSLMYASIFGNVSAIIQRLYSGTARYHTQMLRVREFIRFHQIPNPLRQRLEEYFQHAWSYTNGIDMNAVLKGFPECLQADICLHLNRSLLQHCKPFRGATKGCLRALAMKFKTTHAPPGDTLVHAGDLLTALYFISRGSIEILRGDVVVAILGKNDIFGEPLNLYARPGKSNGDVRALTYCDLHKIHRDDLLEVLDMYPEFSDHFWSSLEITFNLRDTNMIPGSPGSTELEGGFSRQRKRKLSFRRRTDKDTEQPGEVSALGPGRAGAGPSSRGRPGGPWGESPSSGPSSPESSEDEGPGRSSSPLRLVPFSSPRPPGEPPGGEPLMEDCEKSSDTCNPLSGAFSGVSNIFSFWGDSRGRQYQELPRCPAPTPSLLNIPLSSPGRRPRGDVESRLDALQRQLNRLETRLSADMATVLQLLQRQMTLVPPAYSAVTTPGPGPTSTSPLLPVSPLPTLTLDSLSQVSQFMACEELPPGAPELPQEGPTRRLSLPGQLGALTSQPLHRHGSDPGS

[21] = molecular target: 5-hydroxytryptamine receptor 1B (Homo sapiens) (UniProt P28222); test: Inhibition of 5-HT1B receptor (unknown origin) at 10 uM by CEREP analysis relative to control
5-hydroxytryptamine receptor 1B (Homo sapiens), sequence (P28222 whole entry): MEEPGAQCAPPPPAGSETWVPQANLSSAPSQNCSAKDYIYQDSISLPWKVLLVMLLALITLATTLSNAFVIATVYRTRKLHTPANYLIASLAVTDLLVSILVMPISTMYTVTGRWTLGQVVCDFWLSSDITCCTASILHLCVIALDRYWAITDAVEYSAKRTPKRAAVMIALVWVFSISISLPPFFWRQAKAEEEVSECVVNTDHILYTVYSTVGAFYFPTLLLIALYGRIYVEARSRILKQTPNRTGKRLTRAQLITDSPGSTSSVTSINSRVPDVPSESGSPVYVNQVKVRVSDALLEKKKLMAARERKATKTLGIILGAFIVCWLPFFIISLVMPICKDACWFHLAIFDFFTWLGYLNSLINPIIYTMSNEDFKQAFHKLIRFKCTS

[22] = molecular target: 5-hydroxytryptamine receptor 2B (Homo sapiens) (UniProt P41595); test: Inhibition of 5-HT2B receptor (unknown origin) at 10 uM by CEREP analysis relative to control
5-hydroxytryptamine receptor 2B (Homo sapiens), sequence (P41595 whole entry): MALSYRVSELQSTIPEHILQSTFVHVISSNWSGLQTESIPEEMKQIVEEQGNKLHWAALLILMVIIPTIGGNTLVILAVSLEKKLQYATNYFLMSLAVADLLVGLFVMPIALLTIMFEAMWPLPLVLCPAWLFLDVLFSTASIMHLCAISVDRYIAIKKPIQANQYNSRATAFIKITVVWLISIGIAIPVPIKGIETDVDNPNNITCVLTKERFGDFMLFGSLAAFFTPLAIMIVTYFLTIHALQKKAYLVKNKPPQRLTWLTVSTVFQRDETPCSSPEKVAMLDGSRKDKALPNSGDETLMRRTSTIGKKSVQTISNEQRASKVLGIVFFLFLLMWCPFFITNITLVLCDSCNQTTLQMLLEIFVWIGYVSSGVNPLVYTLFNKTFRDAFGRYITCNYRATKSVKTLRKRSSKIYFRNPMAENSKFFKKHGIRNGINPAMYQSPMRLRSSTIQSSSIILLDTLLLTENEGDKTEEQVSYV

[23] = organism: Homo sapiens; test: Inhibition of sodium channel site 2 (unknown origin) at 10 uM by CEREP analysis relative to control
[24] = molecular target: L-type calcium channel (Homo sapiens, UniProt O60840+Q01668+Q13698+Q13936); test: Inhibition of Calcium channel L-type (unknown origin) at 10 uM by CEREP analysis relative to control; format: protein assay
[25] = molecular target: Sodium-dependent serotonin transporter (Homo sapiens) (UniProt P31645); test: Inhibition of SERT (unknown origin) at 10 uM by CEREP analysis relative to control
Sodium-dependent serotonin transporter (Homo sapiens), sequence (P31645 whole entry, looked up): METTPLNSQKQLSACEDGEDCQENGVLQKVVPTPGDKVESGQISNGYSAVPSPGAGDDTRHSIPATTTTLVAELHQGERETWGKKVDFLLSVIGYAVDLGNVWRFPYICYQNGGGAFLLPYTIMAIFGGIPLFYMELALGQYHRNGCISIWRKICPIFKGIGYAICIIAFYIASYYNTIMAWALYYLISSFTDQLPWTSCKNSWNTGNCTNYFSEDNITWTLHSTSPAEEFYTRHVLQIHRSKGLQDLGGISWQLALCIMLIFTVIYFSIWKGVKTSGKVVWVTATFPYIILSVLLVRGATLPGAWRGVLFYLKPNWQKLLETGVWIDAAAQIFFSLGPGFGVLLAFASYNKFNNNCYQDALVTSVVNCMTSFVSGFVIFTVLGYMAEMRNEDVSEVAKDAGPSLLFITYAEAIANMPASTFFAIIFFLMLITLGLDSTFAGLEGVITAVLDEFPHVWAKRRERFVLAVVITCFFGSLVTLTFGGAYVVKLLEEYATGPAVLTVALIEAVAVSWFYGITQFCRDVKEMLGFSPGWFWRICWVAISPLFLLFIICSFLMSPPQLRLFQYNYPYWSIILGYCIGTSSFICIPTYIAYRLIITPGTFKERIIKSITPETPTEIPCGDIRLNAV

[26] = molecular target: cGMP-inhibited 3',5'-cyclic phosphodiesterase 3A (Homo sapiens) (UniProt Q14432); test: Inhibition of PDE3A (unknown origin) at 10 uM by CEREP analysis relative to control
[27] = molecular target: 3',5'-cyclic-AMP phosphodiesterase 4D (Homo sapiens) (UniProt Q08499); test: Inhibition of PDE4D2 (unknown origin) at 10 uM by CEREP analysis relative to control
3',5'-cyclic-AMP phosphodiesterase 4D (Homo sapiens), sequence (Q08499 whole entry): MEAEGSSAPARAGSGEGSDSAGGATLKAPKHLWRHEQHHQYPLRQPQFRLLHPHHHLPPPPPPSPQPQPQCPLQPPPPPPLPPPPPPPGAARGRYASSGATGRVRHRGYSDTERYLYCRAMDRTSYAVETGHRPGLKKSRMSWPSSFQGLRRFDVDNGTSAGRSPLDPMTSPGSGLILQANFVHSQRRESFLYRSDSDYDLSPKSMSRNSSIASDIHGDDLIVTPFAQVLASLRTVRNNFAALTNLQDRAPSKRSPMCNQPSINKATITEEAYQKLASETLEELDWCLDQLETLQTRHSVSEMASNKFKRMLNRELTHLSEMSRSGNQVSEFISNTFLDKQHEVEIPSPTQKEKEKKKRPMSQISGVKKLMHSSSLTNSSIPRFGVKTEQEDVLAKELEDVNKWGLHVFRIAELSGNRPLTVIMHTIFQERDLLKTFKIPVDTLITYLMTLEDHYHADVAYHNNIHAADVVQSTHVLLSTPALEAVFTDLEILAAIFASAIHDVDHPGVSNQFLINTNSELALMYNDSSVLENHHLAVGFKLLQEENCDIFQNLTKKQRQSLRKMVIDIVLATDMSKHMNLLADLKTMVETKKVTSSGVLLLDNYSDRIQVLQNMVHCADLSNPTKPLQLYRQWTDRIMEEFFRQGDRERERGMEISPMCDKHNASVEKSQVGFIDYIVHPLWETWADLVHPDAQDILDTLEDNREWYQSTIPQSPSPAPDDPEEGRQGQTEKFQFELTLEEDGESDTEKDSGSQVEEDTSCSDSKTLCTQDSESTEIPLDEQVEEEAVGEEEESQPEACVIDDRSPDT

[28] = molecular target: T2, Muscarinic acetylcholine receptor M2 (Homo sapiens) (UniProt P08172); test: Inhibition of muscarinic M2 receptor (unknown origin) at 10 uM by CEREP analysis relative to control
T2 sequence (whole entry): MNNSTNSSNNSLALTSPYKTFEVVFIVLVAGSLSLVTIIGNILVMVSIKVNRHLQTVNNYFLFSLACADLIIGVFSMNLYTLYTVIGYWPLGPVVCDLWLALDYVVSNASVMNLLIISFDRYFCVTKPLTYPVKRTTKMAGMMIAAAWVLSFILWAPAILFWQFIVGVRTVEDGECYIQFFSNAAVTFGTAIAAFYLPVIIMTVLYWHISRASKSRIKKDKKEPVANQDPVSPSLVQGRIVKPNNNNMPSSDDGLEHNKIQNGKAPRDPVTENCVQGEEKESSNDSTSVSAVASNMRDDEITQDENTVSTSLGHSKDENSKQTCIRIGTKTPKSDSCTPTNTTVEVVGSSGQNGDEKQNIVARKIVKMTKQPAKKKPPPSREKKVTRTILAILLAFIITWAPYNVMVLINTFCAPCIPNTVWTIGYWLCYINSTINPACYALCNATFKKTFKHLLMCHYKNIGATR

[29] = Oral bioavailability in mouse; format: ADME, organism-based; details: in vivo
[30] = Oral bioavailability in rat; format: ADME, organism-based; details: in vivo
[31] = Clearance in mouse; format: ADME, organism-based; details: in vivo
[32] = molecular target: Hepatocyte growth factor receptor (Homo sapiens, UniProt P08581); test: (§1) Inhibition of N-terminal GST-tagged wild-type human c-MET (956 to 1390 residues) extracted from baculovirus infected Sf21 cells using 5-FAM-KKKKEEIYFFF-CONH2 as substrate preincubated for 30 mins followed by ATP addition measured after 60 mins by fluorescence-based microfluidic mobility shift assay
[33] = molecular target: Hepatocyte growth factor receptor (Homo sapiens, UniProt P08581, D1228N); test: as §1, with “recombinant” for “wild-type”, “c-MET D1228N mutant” for “c-MET”, “end” for “1390”, “Sf9” for “Sf21”
[34] = molecular target: Vascular endothelial growth factor receptor 2 (Homo sapiens, UniProt P35968); test: Inhibition of KDR (unknown origin) by fluorescence-based microfluidic mobility shift assay
Vascular endothelial growth factor receptor 2, sequence (P35968 whole entry): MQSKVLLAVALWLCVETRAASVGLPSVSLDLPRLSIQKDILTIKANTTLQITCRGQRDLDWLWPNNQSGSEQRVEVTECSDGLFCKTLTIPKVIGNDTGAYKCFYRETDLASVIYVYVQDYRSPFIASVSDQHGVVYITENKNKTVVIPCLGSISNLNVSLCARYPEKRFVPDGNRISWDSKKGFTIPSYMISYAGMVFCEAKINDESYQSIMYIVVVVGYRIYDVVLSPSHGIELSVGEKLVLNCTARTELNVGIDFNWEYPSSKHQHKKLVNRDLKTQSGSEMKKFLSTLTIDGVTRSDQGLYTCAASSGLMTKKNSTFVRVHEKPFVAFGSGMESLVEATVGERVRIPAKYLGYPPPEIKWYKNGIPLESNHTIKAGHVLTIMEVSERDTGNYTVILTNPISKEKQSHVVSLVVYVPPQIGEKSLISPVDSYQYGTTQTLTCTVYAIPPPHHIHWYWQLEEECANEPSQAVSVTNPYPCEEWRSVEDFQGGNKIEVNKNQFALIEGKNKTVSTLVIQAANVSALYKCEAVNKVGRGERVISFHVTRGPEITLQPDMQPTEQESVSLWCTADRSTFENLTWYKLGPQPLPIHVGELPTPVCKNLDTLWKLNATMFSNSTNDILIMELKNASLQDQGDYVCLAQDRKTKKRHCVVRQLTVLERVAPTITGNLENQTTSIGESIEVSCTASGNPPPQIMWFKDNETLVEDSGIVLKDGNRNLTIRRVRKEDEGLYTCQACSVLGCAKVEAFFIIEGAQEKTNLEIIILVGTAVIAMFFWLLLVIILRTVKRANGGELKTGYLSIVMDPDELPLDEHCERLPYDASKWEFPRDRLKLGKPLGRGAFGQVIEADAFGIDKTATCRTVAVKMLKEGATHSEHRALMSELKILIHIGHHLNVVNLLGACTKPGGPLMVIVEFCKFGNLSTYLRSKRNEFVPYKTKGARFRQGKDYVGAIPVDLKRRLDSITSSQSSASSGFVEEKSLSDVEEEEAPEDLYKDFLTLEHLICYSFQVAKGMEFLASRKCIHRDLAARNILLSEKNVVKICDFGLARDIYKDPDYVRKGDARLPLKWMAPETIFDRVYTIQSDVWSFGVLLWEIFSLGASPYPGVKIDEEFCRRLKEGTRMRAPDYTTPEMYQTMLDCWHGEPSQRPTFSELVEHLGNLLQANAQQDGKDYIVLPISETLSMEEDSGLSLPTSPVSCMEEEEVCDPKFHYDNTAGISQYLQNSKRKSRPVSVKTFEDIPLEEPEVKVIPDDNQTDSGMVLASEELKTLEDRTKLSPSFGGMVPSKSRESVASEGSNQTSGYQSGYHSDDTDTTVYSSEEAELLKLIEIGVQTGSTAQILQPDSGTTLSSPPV

[35] = molecular target: Tyrosine-protein kinase receptor UFO (Homo sapiens, UniProt P30530); test: Inhibition of AXL (unknown origin) by fluorescence-based microfluidic mobility shift assay
[36] = molecular target: Tyrosine-protein kinase Mer (Homo sapiens, UniProt Q12866); test: Inhibition of MERTK (unknown origin) by fluorescence-based microfluidic mobility shift assay

solubility kinetic [1]: 252 µM (≈ 113 µg/mL)
solubility kinetic [2]: 24 µM (≈ 10.8 µg/mL)
IC50 [18]: > 50000 nM
EC50 [3]: 382 nM
EC50 [4]: 174 nM
Structure (SMILES): COc1cc2nccc(Oc3ccc(NC(=O)c4cnccc4OC)cc3F)c2cc1OC

solubility kinetic [1]: 315 µM (≈ 157 µg/mL)
solubility kinetic [2]: 11 µM (≈ 5.47 µg/mL)
inhibition [19]: 8%
inhibition [21]: -8%
inhibition [22]: 18%
inhibition [23]: 30%
inhibition at 10 µM [24]: -3%
inhibition [25]: 7%
inhibition [26]: 98%
inhibition [27]: 90%
inhibition [28]: 12%
bioavailability [29]: ~100%
bioavailability [30]: ~100%
EC50 [3]: 36 nM
EC50 [4]: 31 nM
Structure (SMILES): COc1cc2c(Oc3c(F)cc(NC(=O)c4cnccc4OC)cc3F)ccnc2cc1OCCO
inhibition at 10 µM [20]: 3%

solubility kinetic [1]: 276 µM (≈ 141 µg/mL)
solubility kinetic [2]: 208 µM (≈ 106 µg/mL)
inhibition [19]: 54%
inhibition [21]: 54%
inhibition [22]: 58%
inhibition [23]: 89%
inhibition at 10 µM [24]: 41%
inhibition [25]: 101%
inhibition [26]: -2%
inhibition [27]: 11%
inhibition [28]: 3%
clearance [31]: 43 mL/min/kg
bioavailability [29]: < 5%
EC50 [3]: 59 nM
EC50 [4]: 41 nM
Structure (SMILES): CNCCOc1cc2nccc(Oc3c(F)cc(NC(=O)c4cnccc4OC)cc3F)c2cc1OC
inhibition at 10 µM [20]: 70%

solubility kinetic [1]: 288 µM (≈ 142 µg/mL)
solubility kinetic [2]: 4.4 µM (≈ 2.17 µg/mL)
EC50 [3]: 43 nM
EC50 [4]: 26 nM
Structure (SMILES): COc1cc2nccc(Oc3c(F)cc(NC(=O)c4cnccc4OC4CC4)cc3F)c2cc1OC

IC50 [18]: 300 nM
Structure (SMILES): COc1cc2nccc(Oc3ccc(NC(=O)c4ccncc4OC)cc3F)c2cc1OC

solubility kinetic [1]: 205 µM (≈ 95.8 µg/mL)
solubility kinetic [2]: 5.4 µM (≈ 2.52 µg/mL)
EC50 [3]: 123 nM
EC50 [4]: 56 nM
Structure (SMILES): COc1cc2nccc(Oc3c(F)cc(NC(=O)c4cnccc4OC)cc3F)c2cc1OC

Second part, the compound before the results:

Structure (SMILES): CN1CCC(COc2cnc(-c3cccc(Cn4nc(-c5cccc(C#N)c5)ccc4=O)c3)nc2)CC1 [TEPOTINIB]
solubility kinetic [1]: 295 µM (≈ 145 µg/mL)
solubility kinetic [2]: 48 µM (≈ 23.6 µg/mL)
EC50 [3]: 6.4 nM
EC50 [4]: 1910 nM
EC50 [5]: 3.04 µM
EC50 [6]: 3.44 µM
EC50 [7]: 1820 nM
EC50 [8]: 3.41 µM
EC50 [9]: 2210 nM
EC50 [10]: 2810 nM
EC50 [11]: 0.6 nM
EC50 [12]: 2.3 nM
EC50 [13]: 183 nM
EC50 [14]: 4.2 nM
EC50 [15]: 123 nM
EC50 [16]: 122 nM
EC50 [17]: 24 nM

Structure (SMILES): COc1cc2nccc(Oc3ccc(NC(=O)C4(C(=O)Nc5ccc(F)cc5)CC4)cc3)c2cc1OC [CABOZANTINIB]
solubility kinetic [1]: 21 µM (≈ 10.5 µg/mL)
solubility kinetic [2]: 5.2 µM (≈ 2.61 µg/mL)

Structure (SMILES): C[C@@H](c1ccc2nccn2c1)n1nnc2ncc(-c3cnn(C)c3)nc21 [SAVOLITINIB]
EC50 [5]: > 10 µM
EC50 [6]: > 10 µM
EC50 [7]: 7400 nM
EC50 [8]: > 10 µM
EC50 [9]: > 10000 nM
EC50 [10]: > 10000 nM
EC50 [11]: 0.5 nM
EC50 [12]: 0.5 nM
EC50 [13]: 13 nM
EC50 [14]: 1.5 nM
EC50 [15]: 73 nM
EC50 [16]: 74 nM
EC50 [17]: 8.4 nM

Structure (SMILES): COc1cc2c(Oc3c(F)cc(NC(=O)c4cnccc4OC4CC4)cc3F)ccnc2cc1OCCO
solubility kinetic [1]: 312 µM (≈ 163 µg/mL)
solubility kinetic [2]: 8.1 µM (≈ 4.24 µg/mL)
inhibition [19]: -1%
inhibition at 10 µM [20]: 13%
inhibition [21]: 22%
inhibition [22]: 69%
inhibition [23]: 57%
inhibition at 10 µM [24]: 50%
inhibition [25]: 4%
inhibition [26]: 99%
inhibition [27]: 96%
inhibition [28]: 81%
clearance [31]: 5.4 mL/min/kg
bioavailability [29]: ~100%
EC50 [3]: 18 nM
EC50 [4]: 14 nM

Structure (SMILES): COc1cc2nccc(Oc3ccc(NC(=O)c4ccccc4OC)cc3F)c2cc1OC
IC50 [32]: 4.4 nM
IC50 [33]: 2.2 nM
solubility kinetic [1]: 6.1 µM (≈ 2.74 µg/mL)
solubility kinetic [2]: 1 µM (≈ 0.448 µg/mL)
IC50 [34]: 250 nM
EC50 [3]: 1320 nM
EC50 [4]: 795 nM

Structure (SMILES): COCCNCc1ccc(-c2cc3nccc(Oc4ccc(NC(=S)NC(=O)Cc5ccc(F)cc5)cc4F)c3s2)nc1 [GLESATINIB]
solubility kinetic [1]: 4 µM (≈ 2.48 µg/mL)
solubility kinetic [2]: 0.12 µM (≈ 0.0744 µg/mL)
IC50 [34]: 0.5 nM

Structure (SMILES): Cc1ccc(C(=O)Nc2ccc(Oc3cc4cnn(C)c4cc3-c3cn[nH]c3)c(F)c2)c(=O)n1-c1ccc(F)cc1 [MERESTINIB]
solubility kinetic [1]: 0.4 µM (≈ 0.221 µg/mL)
solubility kinetic [2]: 0.08 µM (≈ 0.0442 µg/mL)
IC50 [35]: 0.5 nM
IC50 [36]: 0.5 nM
IC50 [34]: 341 nM
EC50 [3]: 25 nM
EC50 [4]: 116 nM
EC50 [5]: 0.129 µM
EC50 [6]: 0.255 µM
EC50 [7]: 91 nM
EC50 [8]: 0.026 µM
EC50 [9]: 23 nM
EC50 [10]: 18 nM
EC50 [11]: 7.8 nM
EC50 [12]: 21 nM
EC50 [13]: 64 nM
EC50 [14]: 249 nM
EC50 [15]: 203 nM
EC50 [16]: 837 nM
EC50 [17]: 511 nM
